The source of these data is patent US20080317858A1, “FORMULATIONS OF N-(2-ACETYL-4,6-DIMETHYLPHENYL)-3--2-THIOPHENECARBOXAMIDE” (priority 2007, published 2008).

Take `CC(=O)c1cc(C)cc(C)c1NC(=O)c1sccc1S(=O)(=O)Nc1onc(C)c1C` [N-(2-acetyl-4,6-dimethylphenyl)-3-{[(3,4 dimethyl-5-isoxazolyl)amino]sulfonyl}-2-thiophenecarboxamide]: the melting point lay within 158 to 160 °C.
